Assay results published in US11162944B2, “Compositions and methods” (priority 2015, dated 2021).
Like-named read-outs stand apart in the source and are kept apart here. Marks after values point to notes of the source that are not given here.

System: biomarker (antibody) in serum samples from patients with symptoms of tuberculosis
Format: binding, human

SMILES: CCCCCCCCCCCCCCCCCCCCCC[C@@H](C(=O)OC[C@H]1O[C@H](OC)[C@@H](O)[C@@H]1O)[C@H](O)CCCCCCCCCCCCCCCCC[C@H]1C[C@H]1CCCCCCCCCCCCCCCC[C@@H](OC)[C@@H](C)CCCCCCCCCCCCCCCCCC [Antigen E]
- ELISA absorbance at 492 nm (serum sample 1 TB+): 0.42*
- ELISA absorbance at 492 nm (serum sample 2 TB+): 0.36*
- ELISA absorbance at 492 nm (serum sample 3 TB+): 0.77*
- ELISA absorbance at 492 nm (serum sample 4 TB+): 0.90*
- ELISA absorbance at 492 nm (serum sample 5 TB+): 0.38*
- ELISA absorbance at 492 nm (serum sample 6 TB+): 0.54*
- ELISA absorbance at 492 nm (serum sample 7 TB+): 1.15*
- ELISA absorbance at 492 nm (serum sample 8 TB+): 0.69*
- ELISA absorbance at 492 nm (serum sample 9 TB+): 0.56*
- ELISA absorbance at 492 nm (serum sample 10 TB−): 0.35
- ELISA absorbance at 492 nm (serum sample 11 TB−): 0.45*
- ELISA absorbance at 492 nm (serum sample 12 TB−): 0.29
- ELISA absorbance at 492 nm (serum sample 13 TB−): 0.34
- ELISA absorbance at 492 nm (serum sample 14 TB−): 0.58*
- ELISA absorbance at 492 nm (serum sample 15 TB−): 0.37*
- ELISA absorbance at 492 nm (serum sample 16 TB−): 0.42*
- ELISA absorbance at 492 nm (serum sample 17 TB−): 0.47*
- ELISA absorbance at 492 nm (serum sample 18 TB−): 0.25
- ELISA absorbance at 492 nm (serum sample 19 TB−): 0.31
- ELISA absorbance at 492 nm (serum sample 20 TB−): 0.38*
- ELISA absorbance at 492 nm (serum sample 21 TB−): 0.35
- ELISA absorbance at 492 nm (serum sample 22 TB−): 0.24
- ELISA absorbance at 492 nm (serum sample 23 TB−): 0.35*
- ELISA absorbance at 492 nm (serum sample 24 TB−): 0.26
- ELISA absorbance at 492 nm (serum sample 25 TB−): 0.18
- ELISA absorbance at 492 nm (serum sample 26 TB−): 0.24
- ELISA absorbance at 492 nm (serum sample 27 TB−): 0.33
- ELISA absorbance at 492 nm (serum sample 28 TB−): 0.23
- ELISA absorbance at 492 nm (serum sample 29 TB−): 0.29
- ELISA absorbance at 492 nm (serum sample 30 TB−): 0.24
- ELISA absorbance at 492 nm (serum sample 31 TB−): 0.30
- ELISA absorbance at 492 nm (serum sample 32 TB−): 0.57*
- ELISA absorbance at 492 nm (serum sample 33 TB−): 0.46*
- ELISA absorbance at 492 nm (serum sample 34 TB−): 0.51*
- ELISA absorbance at 492 nm (serum sample 35 TB−): 0.26
- ELISA absorbance at 492 nm (serum sample 36 TB−): 0.23
- ELISA absorbance at 492 nm (serum sample 37 TB−): 0.41*
- ELISA absorbance at 492 nm (serum sample 38 TB−): 0.40*
- ELISA absorbance at 492 nm (serum sample 39 TB−): 0.31
- ELISA absorbance at 492 nm (serum sample 40 TB−): 0.25
- ELISA absorbance at 492 nm (serum sample 41 TB−): 0.33
- ELISA absorbance at 492 nm (serum sample 42 TB−): 0.42*
- ELISA absorbance at 492 nm (serum sample 43 TB−): 0.29
- ELISA absorbance at 492 nm (serum sample 44 TB−): 0.67*
- ELISA absorbance at 492 nm (serum sample 45 TB−): 0.35*
- ELISA absorbance at 492 nm (serum sample 46 TB−): 0.26
- ELISA absorbance at 492 nm (serum sample 47 TB−): 0.41*
- ELISA absorbance at 492 nm (serum sample 48 TB−): 0.17
- ELISA absorbance at 492 nm (serum sample 49 TB−): 0.25
- ELISA absorbance at 492 nm (serum sample 50 TB−): 0.30
- ELISA absorbance at 492 nm (serum sample 51 TB−): 0.18
- ELISA absorbance at 492 nm (serum sample 52 TB−): 0.26
- ELISA absorbance at 492 nm (serum sample 53 TB−): 0.25
- ELISA absorbance at 492 nm (serum sample 54 TB−): 0.20
- ELISA absorbance at 492 nm (serum sample 55 TB−): 0.22
- ELISA absorbance at 492 nm (serum sample 56 TB−): 0.31
- ELISA absorbance at 492 nm (serum sample 57 TB−): 0.29
- ELISA absorbance at 492 nm (serum sample 58 TB−): 0.28
- ELISA absorbance at 492 nm (serum sample 59 TB−): 0.25
- ELISA absorbance at 492 nm (serum sample 60 TB−): 0.29
- ELISA absorbance at 492 nm (serum sample 61 TB−): 0.34
- ELISA absorbance at 492 nm (serum sample 62 TB−): 0.35*
- ELISA absorbance at 492 nm (serum sample 63 TB−): 0.22
- ELISA absorbance at 492 nm (serum sample 64 TB−): 3.98*
